Measured values: patent publication US9518107B2, “Pharmaceutical compositions containing polypeptides derived from α-1 antitrypsin and methods of use thereof” (YISSUM RESEARCH DEVELOPMENT COMPANY OF THE HEBREW …, priority 2010, dated 2016)

Legend:
[1] = tested on: Female C57BL/6 mice; experiment: Experimental autoimmune encephalitis (EAE), MOG 35-55 induced, neurological score; type: in vivo; details: for neurological symptoms (neurological score 0 to 6): i.p. 1 μg/kg, thrice a week, from four days after MOG immunization, FIG. 3
Experimental: (§1) Female C57BL/6 mice were injected subcutaneously into 4 sites on the back, adjacent to each of the forelimbs and hindlimbs (total amount 200 μl) with a myelin oligodendritic glycoprotein (MOG) 35-55 fragment emulsified with complete Freund's adjuvant. Thereafter, each animal was i.p. injected with pertusis toxin (PTX; 200 ng/mouse) in PBS and an additional
PTX injection was repeated 2 days later, which is a standard protocol for initiating experimental autoimmune encephalomyelitis (EAE) in mice. UBE polypeptide (SEQ ID NO:2) was intraperitoneally (i.p.) injected (0.3 μg/kg, thrice a week) five days after MOG immunization (day of onset of symptoms). The animals were evaluated for neurological score from 0 (no effect) to 6 (severe neurological symptoms including paralysis). Results are the mean±SE of neurological score (sum of all scores divided by the number of animals in each experimental group) at each of the indicated time intervals after MOG injection.
as §1, with “additional PTX injection was repeated 2 days later. Four days after MOG immunization, each mouse received i.p. injections (1 μg/kg, thrice a week) of each of the following polypeptides:” for “additional”
The animals were evaluated for neurological score from 0 (no effect) to 6 (severe neurological symptoms including paralysis). Results are the mean±SE of neurological score (sum of all scores divided by the number of animals in each experimental group) at each of the indicated time intervals after immunization.

[2] = tested on: arthritic mice; experiment: Collagen type II induced arthritis, joint swelling; type: in vivo; details: 1 μg/kg thrice a week, from five days after second immunization; FIG. 16
Experimental: Chick collagen type II (2.0 mg) was incubated overnight in 0.01 M acetic acid (0.9 ml) at 4° C. The resulting solution was emulsified with equal volume (1.0 ml) of […] Freund's Adjuvant containing 5.0 mg heat-killed Mycobacterium tuberculosis. Thereafter, the animal was injected intradermally in the tail base with 100 μl of the emulsion and an additional immunization was repeated 21 days later. Five days later, UBE or UBE1 polypeptide were administered (1 μg/kg thrice a week). The animals were evaluated for the difference in joint thickness (mm) between the indicated time intervals and prior to immunization.

[3] = tested on: severe sepsis; details: decrease from about 31% without treatment; further trials failed to replicate; cited from earlier work

## MPPIVRFDHPFLFIIFEEHTQSPLFVGKVVDPTHK (listed as Mus musculus) [UBE-N, peptide corresponding to residues 379-413 of Mus musculus alpha-1-antitrypsin (serpin a1c)]
[1]
  neurological symptoms (neurological score 0 to 6): reduced the neurological symptoms

## SMPPIVRFDHPFLFIIFEEHTQSPLFVGKVVDPTH (listed as Mus musculus) [UBE-C, peptide corresponding to residues 378-412 of Mus musculus alpha-1-antitrypsin (serpin a1c)]
[1]
  neurological symptoms (neurological score 0 to 6): reduced the neurological symptoms

## YSMPPIVRFDHPFLFIIFEEHTQSPLFVGKVVDPTHK (listed as Mus musculus) [UBE1, peptide corresponding to residues 377-413 of Mus musculus alpha-1-antitrypsin (serpin a1c)]
[2]
  joint swelling (difference in joint thickness): reduction in joint swelling
[1]; summary statement, b192 (FIG. 3) does not name UBE1
  neurological damage in animal models of multiple sclerosis: highly effective in eliminating neurological damage

## drotrecogin alfa
[3]
  mortality in severe sepsis: about 25%
